Laboratory results as given in patent US8952024B2, “Herbicidal pyrimidone derivatives” (E I du Pont de Nemours and Company, priority 2009, dated 2015).

Key:
Experiment in all cases: Test C plant response
Assay type in all cases: in vivo
[1] = tested on: Italian ryegrass (Lolium multiflorum); conditions: Postemergence, scale 0 to 100
Text: (§1) Seeds of plant species selected from bluegrass (annual bluegrass, Poa annua), blackgrass (Alopecurus myosuroides), canarygrass (Phalaris minor), chickweed (common chickweed, Stellaria media), galium (catchweed bedstraw, Galium aparine), bromegrass (downy bromegrass, Bromus tectorum), field poppy (Papaver rhoeas), field violet (Viola arvensis), green foxtail (Setaria viridis), deadnettle (henbit deadnettle, Lamium amplexicaule), Italian ryegrass (Lolium multiflorum), kochia (Kochia scoparia), lambsquarters (Chenopodium album), oilseed rape (Brassica napus), pigweed (Amaranthus retroflexus), Russian thistle (Salsola iberica), spring barley (Hordeum vulgare), spring wheat (Triticum aestivum), buckwheat (wild buckwheat, Polygonum convolvulus), wild mustard (Sinapis arvensis), wild oat (Avena fatua), wild radish (Raphanus raphanistrum), windgrass (Apera spica-venti), winter barley (Hordeum vulgare), and winter wheat (Triticum aestivum) were planted and treated postemergence with test chemicals formulated in a non-phytotoxic solvent mixture which included a surfactant. Plants ranged in height from 2 to 18 cm (1- to 4-leaf stage).
(§2) Treated plants and controls were maintained in a controlled growth environment for 14 days after which time all test plants were visually evaluated and compared to controls. Plant response ratings, summarized in Table C, are based on a scale of 0 to 100 where 0 is no effect and 100 is complete control. A dash (-) response means no test result.

[2] = tested on: blackgrass (Alopecurus myosuroides); conditions: Postemergence, scale 0 to 100
Text: as §1, §2

[3] = tested on: bluegrass (annual bluegrass, Poa annua); conditions: Postemergence, scale 0 to 100
Text: as §1, §2

[4] = tested on: bromegrass (downy bromegrass, Bromus tectorum); conditions: Postemergence, scale 0 to 100
Text: as §1, §2

[5] = tested on: buckwheat (wild buckwheat, Polygonum convolvulus); conditions: Postemergence, scale 0 to 100
Text: as §1, §2

[6] = tested on: deadnettle (henbit deadnettle, Lamium amplexicaule); conditions: Postemergence, scale 0 to 100
Text: as §1, §2

[7] = tested on: field violet (Viola arvensis); conditions: Postemergence, scale 0 to 100
Text: as §1, §2

[8] = tested on: galium (catchweed bedstraw, Galium aparine); conditions: Postemergence, scale 0 to 100
Text: as §1, §2

kochia (Kochia scoparia) = conditions: Postemergence, scale 0 to 100
Text: as §1, §2

[9] = tested on: oilseed rape (Brassica napus); conditions: Postemergence, scale 0 to 100
Text: as §1, §2

[10] = tested on: spring barley (Hordeum vulgare); conditions: Postemergence, scale 0 to 100
Text: as §1, §2

[11] = tested on: wild mustard (Sinapis arvensis); conditions: Postemergence, scale 0 to 100
Text: as §1, §2

wild oat (Avena fatua) [12] = conditions: Postemergence, scale 0 to 100
Text: as §1, §2

[13] = tested on: wild radish (Raphanus raphanistrum); conditions: Postemergence, scale 0 to 100
Text: as §1, §2

[14] = tested on: windgrass (Apera spica-venti); conditions: Postemergence, scale 0 to 100
Text: as §1, §2

[15] = tested on: winter barley (Hordeum vulgare); conditions: Postemergence, scale 0 to 100
Text: as §1, §2

[16] = tested on: winter wheat (Triticum aestivum); conditions: Postemergence, scale 0 to 100
Text: as §1, §2

[17] = tested on: bluegrass (annual bluegrass, Poa annua); conditions: Preemergence, scale 0 to 100
[18] = tested on: galium (catchweed bedstraw, Galium aparine); conditions: Preemergence, scale 0 to 100
[19] = tested on: Russian thistle (Salsola iberica); conditions: Preemergence, scale 0 to 100
[20] = tested on: spring barley (Hordeum vulgare); conditions: Preemergence, scale 0 to 100
wild oat (Avena fatua) [21] = conditions: Preemergence, scale 0 to 100
[22] = tested on: windgrass (Apera spica-venti); conditions: Preemergence, scale 0 to 100
[23] = tested on: winter wheat (Triticum aestivum); conditions: Preemergence, scale 0 to 100

## O=C1CCCC(O)=C1C(=O)c1cnc(-c2ccccc2)n(-c2ccccc2)c1=O [Compound 2, 5-[(2-hydroxy-6-oxo-1-cyclohexen-1-yl)carbonyl]-2,3-diphenyl-4(3H)-pyrimidinone]
[1]; 16 g ai/ha
  Plant response rating: Ryegrass, Italian: 0
[1]; 31 g ai/ha
  Plant response rating: Ryegrass, Italian: 0
[1]; 62 g ai/ha
  Plant response rating: Ryegrass, Italian: 15
[1]; 125 g ai/ha
  Plant response rating: Ryegrass, Italian: 30
[2]; 16 g ai/ha
  Plant response rating: Blackgrass: 0
[2]; 31 g ai/ha
  Plant response rating: Blackgrass: 0
[2]; 62 g ai/ha
  Plant response rating: Blackgrass: 20
[2]; 125 g ai/ha
  Plant response rating: Blackgrass: 30
[3]; 16 g ai/ha
  Plant response rating: Bluegrass: 0
[3]; 31 g ai/ha
  Plant response rating: Bluegrass: 25
[3]; 62 g ai/ha
  Plant response rating: Bluegrass: 25
[3]; 125 g ai/ha
  Plant response rating: Bluegrass: 65
[4]; 16 g ai/ha
  Plant response rating: Bromegrass, Downy: 10
[4]; 31 g ai/ha
  Plant response rating: Bromegrass, Downy: 20
[4]; 62 g ai/ha
  Plant response rating: Bromegrass, Downy: 30
[4]; 125 g ai/ha
  Plant response rating: Bromegrass, Downy: 50
[5]; 16 g ai/ha
  Plant response rating: Buckwheat, Wild: 15
[5]; 31 g ai/ha
  Plant response rating: Buckwheat, Wild: 20
[5]; 62 g ai/ha
  Plant response rating: Buckwheat, Wild: 40
[5]; 125 g ai/ha
  Plant response rating: Buckwheat, Wild: 70
[6]; 16 g ai/ha
  Plant response rating: Deadnettle: 95
[6]; 31 g ai/ha
  Plant response rating: Deadnettle: 95
[6]; 62 g ai/ha
  Plant response rating: Deadnettle: 100
[6]; 125 g ai/ha
  Plant response rating: Deadnettle: 100
[7]; 16 g ai/ha
  Plant response rating: Field Violet: 0
[7]; 31 g ai/ha
  Plant response rating: Field Violet: 40
[7]; 62 g ai/ha
  Plant response rating: Field Violet: 40
[7]; 125 g ai/ha
  Plant response rating: Field Violet: 50
[8]; 16 g ai/ha
  Plant response rating: Galium: 5
[8]; 31 g ai/ha
  Plant response rating: Galium: 30
[8]; 62 g ai/ha
  Plant response rating: Galium: 50
[8]; 125 g ai/ha
  Plant response rating: Galium: 70
Kochia (Kochia scoparia); 16 g ai/ha
  Plant response rating: Kochia: 65
Kochia (Kochia scoparia); 31 g ai/ha
  Plant response rating: Kochia: 70
Kochia (Kochia scoparia); 62 g ai/ha
  Plant response rating: Kochia: 75
Kochia (Kochia scoparia); 125 g ai/ha
  Plant response rating: Kochia: 98
[9]; 16 g ai/ha
  Plant response rating: Oilseed Rape: 60
[9]; 31 g ai/ha
  Plant response rating: Oilseed Rape: 60
[9]; 62 g ai/ha
  Plant response rating: Oilseed Rape: 70
[9]; 125 g ai/ha
  Plant response rating: Oilseed Rape: 90
[10]; 16 g ai/ha
  Plant response rating: Barley, Spring: 0
[10]; 31 g ai/ha
  Plant response rating: Barley, Spring: 0
[10]; 62 g ai/ha
  Plant response rating: Barley, Spring: 0
[10]; 125 g ai/ha
  Plant response rating: Barley, Spring: 0
[11]; 16 g ai/ha
  Plant response rating: Mustard, Wild: 98
[11]; 31 g ai/ha
  Plant response rating: Mustard, Wild: 98
[11]; 62 g ai/ha
  Plant response rating: Mustard, Wild: 98
Wild oat (Avena fatua) [12]; 16 g ai/ha
  Plant response rating: Oat, Wild: 0
Wild oat (Avena fatua) [12]; 31 g ai/ha
  Plant response rating: Oat, Wild: 15
Wild oat (Avena fatua) [12]; 62 g ai/ha
  Plant response rating: Oat, Wild: 25
Wild oat (Avena fatua) [12]; 125 g ai/ha
  Plant response rating: Oat, Wild: 25
[13]; 16 g ai/ha
  Plant response rating: Radish, Wild: 65
[13]; 31 g ai/ha
  Plant response rating: Radish, Wild: 80
[13]; 62 g ai/ha
  Plant response rating: Radish, Wild: 95
[13]; 125 g ai/ha
  Plant response rating: Radish, Wild: 95
[14]; 16 g ai/ha
  Plant response rating: Windgrass: 5
[14]; 31 g ai/ha
  Plant response rating: Windgrass: 20
[14]; 62 g ai/ha
  Plant response rating: Windgrass: 25
[14]; 125 g ai/ha
  Plant response rating: Windgrass: 40
[15]; 16 g ai/ha
  Plant response rating: Barley, Winter: 0
[15]; 31 g ai/ha
  Plant response rating: Barley, Winter: 0
[15]; 62 g ai/ha
  Plant response rating: Barley, Winter: 10
[15]; 125 g ai/ha
  Plant response rating: Barley, Winter: 30
[16]; 16 g ai/ha
  Plant response rating: Wheat, Winter: 0
[16]; 31 g ai/ha
  Plant response rating: Wheat, Winter: 0
[16]; 62 g ai/ha
  Plant response rating: Wheat, Winter: 0
[16]; 125 g ai/ha
  Plant response rating: Wheat, Winter: 30
[17]; 62 g ai/ha
  Plant response rating: Bluegrass: 0
[17]; 125 g ai/ha
  Plant response rating: Bluegrass: 0
[17]; 16 g ai/ha
  Plant response rating: Bluegrass: 0
[17]; 31 g ai/ha
  Plant response rating: Bluegrass: 0
[18]; 62 g ai/ha
  Plant response rating: Galium: 0
[18]; 125 g ai/ha
  Plant response rating: Galium: 50
[19]; 62 g ai/ha
  Plant response rating: Russian Thistle: 0
[19]; 16 g ai/ha
  Plant response rating: Russian Thistle: 0
[19]; 31 g ai/ha
  Plant response rating: Russian Thistle: 0
[20]; 62 g ai/ha
  Plant response rating: Barley, Spring: 0
[20]; 125 g ai/ha
  Plant response rating: Barley, Spring: 0
[20]; 16 g ai/ha
  Plant response rating: Barley, Spring: 0
[20]; 31 g ai/ha
  Plant response rating: Barley, Spring: 0
Wild oat (Avena fatua) [21]; 62 g ai/ha
  Plant response rating: Oat, Wild: 0
Wild oat (Avena fatua) [21]; 125 g ai/ha
  Plant response rating: Oat, Wild: 0
Wild oat (Avena fatua) [21]; 16 g ai/ha
  Plant response rating: Oat, Wild: 0
Wild oat (Avena fatua) [21]; 31 g ai/ha
  Plant response rating: Oat, Wild: 0
[22]; 62 g ai/ha
  Plant response rating: Windgrass: 25
[22]; 125 g ai/ha
  Plant response rating: Windgrass: 25
[22]; 16 g ai/ha
  Plant response rating: Windgrass: 0
[22]; 31 g ai/ha
  Plant response rating: Windgrass: 15
[23]; 62 g ai/ha
  Plant response rating: Wheat, Winter: 0
[23]; 125 g ai/ha
  Plant response rating: Wheat, Winter: 0
[23]; 16 g ai/ha
  Plant response rating: Wheat, Winter: 0
[23]; 31 g ai/ha
  Plant response rating: Wheat, Winter: 0
